≈ marks a conversion by molar mass, not a printed value.
Key:
[1] = system: HCMV recombinant mutant virus (RV145); assay: HCMV microtiter plate assay (beta-glucuronidase reporter); format: cell-based, Human Cytomegalovirus; details: for IC50 (ug/ml) HCMV: HCMV in human foreskin fibroblasts; for IC50: Human betaherpesvirus 5, Fibroblast, read-out: IC50 (ug/ml) HCMV
Text: Ninety-six well plate cultures of human foreskin fibroblasts are infected in the presence of inhibitor compound with a HCMV recombinant mutant virus whose genome contains the prokaryotic beta-glucuronidase gene (Jefferson, R. A., S. M. Burgess, and D. Hirsh. 1986. Beta-glucuronidase from Escherichia coli as a gene fusion marker. Proc. Natl. Acad. Sci. USA 83:8447-8451) whose expression is controlled by a viral promoter. An example of such a virus is RV145 (Jones, T. R., V. P. Muzithras, and Y. Gluzman. 1991. Replacement mutagenesis of the human cytomegalovirus genome: US10 and US11 gene products are nonessential. J. Virol. 65:5860-5872). Since it is under the control of a viral promoter, beta-glucuronidase expression is an indirect indicator of growth and replication of HCMV in this assay. At 96 hours post-infection, the infected cell lysates are prepared (using 50 mM sodium phosphate [pH7.0] containing 0.1% Triton X-100 and 0.1% sarkosyl) and assayed for beta-glucuronidase activity using a substrate for the enzyme which when cleaved yields either a product which can be measured colorimetrically in a spectrophotometer or fluorescently in a microfluorimeter. Examples of such substrates are p-nitrophenyl-beta-D-glucuronide and methylumbelliferylglucuronide, respectively. The presence of an antiviral compound is indicated by the reduced expression of the HCMV genome resident beta-glucuronidase gene, compared to the absence of inhibitor. […] Data from this assay generated using varying amounts of inhibitor compound is also used to estimate the IC50 of an inhibitor compound.

HSV-1 = assay: HSV Antiviral (ELISA) assay; format: cell-based; details: HSV-1 in Vero cells
Experimental: Vero cells (ATCC #CCL-81) are plated on 96-well tissue culture plates at 3.5×10^4 cells per 100 μl tissue culture DMEM (Dulbecco's modified Eagle media) supplemented with 2% fetal bovine serum (FBS) in each well. After overnight incubation @ 37° C. (in 5% CO2) and 30 minutes prior to infection with HSV-1 (multiplicity of infection equal to 0.006), cells are either untreated, or treated with test compound (multiple concentrations) or reference standard drug control. After approximately 24 hours post-infection incubation @ 37° C. (in 5% CO2), cells are fixed for ELISA assay. The primary antibody is murine anti-HSV glycoprotein D monoclonal primary antibody and the secondary antibody is goat anti-mouse IgG linked to β-galactosidase. Thus the extent of viral replication is determined by assessing β-galactosidase activity by quantifying the generation of the 4-methyl umbelliferone fluorescent cleavage product after addition of the methyl umbelliferyl-β-D-galactoside (Sigma #M1633) substrate on a microfluorimeter (365 nm for excitation and 450 nm for emission). Antiviral activity (IC50) of the test compound is determined by comparing the flourescence obtained in absence of compound to that obtained in the presence of compound.

VZV strain Ellen = assay: VZV Antiviral (ELISA) assay; format: cell-based; details: for IC50 (ug/ml) VZV: VZV strain Ellen in HFF cells; for inhibition at 10 µg/mL: Human alphaherpesvirus 3, read-out: % inhibition 10 ug/ml VZV, at 10 ug/ml, VZV strain Ellen in HFF cells
Experimental: For the generation of stock VZV to be used in the assay, VZV strain Ellen (ATCC #VR-1367) is used to infect human foreskin fibroblast (HFF) cells at low multiplicity (less than 0.1) and incubated overnight at 37° C. in 5% CO2. After the overnight incubation, the mixture of uninfected and VZV-infected HFF infected cells are then harvested and added to each well of 96-well plates (3.5×10^4 cells in 100 μl DMEM supplemented with 2% FBS) which contain test compound or the reference standard drug control (in 100 μl DMEM supplemented with 2% FBS per well). These cells are incubated for three days at 37° C. in 5% CO2, then fixed for ELISA assay. The primary antibody is murine anti-VZV glycoprotein II monoclonal antibody (Applied Biosystems, Inc. #13-145-100) and the secondary antibody is goat anti-mouse IgG linked to β-galactosidase. Thus the extent of viral replication is determined by assessing β-galactosidase activity by quantifying the generation of the 4-methyl umbelliferone fluorescent cleavage product after addition of the methyl umbelliferyl-β-D-galactoside (Sigma #M1633) substrate on a microfluorimeter (365 nm for excitation and 450 nm for emission). Antiviral activity (IC50) of the test compound is determined by comparing the flourescence obtained in absence of compound to that obtained in the presence of compound.

Compound | IC50 (ug/ml) HCMV [1] [µg/mL] | IC50 (ug/ml) HSV (HSV-1) [µg/mL] | IC50 (ug/ml) VZV (VZV strain Ellen) [µg/mL] | IC50 [1] [µg/mL] | inhibition at 10 µg/mL (VZV strain Ellen) [%]
O=C(Nc1ccc(NC(=S)NCCc2ccccc2F)cc1)c1csnn1 [Example 684] | 0.005 (≈ 0.0125 µM) | 10 (≈ 24.9 µM) |  |  | 
O=C(Nc1ccc(NC(=S)NCc2cc(C(F)(F)F)ccc2F)cc1)c1ccco1 [Example 670] | 0.02 (≈ 0.0457 µM) | >10 |  |  | 
O=C(Nc1ccc(NC(=S)NCCc2ccc(C(F)(F)F)cc2)cc1)c1csnn1 [Example 717] | 0.003 (≈ 0.00664 µM) | >10 |  |  | 
O=C(Nc1ccc(NC(=S)NCCc2ccc(Cl)c(Cl)c2)cc1)c1ccco1 [Example 718] | 0.02 (≈ 0.046 µM) | 6 (≈ 13.8 µM) |  |  | 
CC(C)(NC(=S)Nc1ccc(NC(=O)c2csnn2)cc1)c1ccccc1 [Example 728] |  | 9 (≈ 22.6 µM) |  |  | 
O=C(Nc1ccc(NC(=S)NCc2ccc3c(c2)OCO3)cc1)c1ccco1 [Example 546] |  | 1.7 (≈ 4.3 µM) | 7 (≈ 17.7 µM) |  | 
O=C(Nc1ccc(NC(=S)NC(CO)c2ccccc2)cc1)c1csnn1 (stereo not shown) [Example 726] |  | >10 |  |  | 
CC(C)(NC(=S)Nc1ccc(NC(=O)c2csnn2)cc1)c1cc(C(F)(F)F)cc(C(F)(F)F)c1 [Example 861] | 0.002 (≈ 0.00375 µM) |  | >7.5 |  | 
O=C(Nc1ccc(NC(=S)NCc2cc(F)cc(F)c2)cc1)c1ccco1 [Example 579] | 0.05 (≈ 0.129 µM) |  | 6 (≈ 15.5 µM) |  | 
O=C(Nc1ccc(NC(=S)NCCCc2ccccc2)cc1)c1ccco1 [Example 612] | 0.049 (≈ 0.129 µM) |  | 1 (≈ 2.64 µM) |  | 
CC(NC(=S)Nc1ccc(NC(=O)c2cscn2)cc1)c1ccc(F)cc1Cl (stereo not shown) [Example 839] | 0.004 (≈ 0.0092 µM) |  | >7.5 |  | 
C[C@@H](NC(=S)Nc1ccc(NC(=O)c2csnn2)cc1)c1ccc(Br)cc1 [Example 816] | 0.0053 (≈ 0.0115 µM) |  | >7.5 |  | 
CC(=O)Nc1ccc(NC(=S)Nc2cc(Cl)cc(Cl)c2)cc1 [Example 983, N-{4-[3-(3,5-Dichloro-phenyl)-thioureido]-phenyl}-acetamide] |  |  |  | 0.12 (≈ 0.339 µM) | 52
Cc1cccc(C(C)NC(=S)Nc2ccc(NC(=O)c3cscn3)cc2)c1 (stereo not shown) [Example 837] | 0.03 (≈ 0.0757 µM) |  | 3.60 (≈ 9.08 µM) |  | 
CC(NC(=S)Nc1ccc(NC(=O)c2c[nH]cn2)cc1)c1ccc(F)cc1 (stereo not shown) [Example 863] | 2.0 (≈ 5.22 µM) |  | >7.5 |  | 
CC(NC(=S)Nc1ccc(NC(=O)c2cscn2)cc1)c1ccc(F)cc1F (stereo not shown) [Example 846] | 0.0130 (≈ 0.0311 µM) |  | 1.04 (≈ 2.49 µM) |  | 
CC(NC(=S)Nc1ccc(NC(=O)c2cscn2)cc1)c1cccc(Br)c1 (stereo not shown) [Example 844] | 0.0008 (≈ 0.00173 µM) |  | 1.03 (≈ 2.23 µM) |  | 
CCC(NC(=S)Nc1ccc(NC(=O)c2cscn2)cc1)c1cc(C(F)(F)F)cc(C(F)(F)F)c1 (stereo not shown) [Example 865] | 0.0001 (≈ 0.000188 µM) |  | >7.5 |  | 

Compound | IC50 (ug/ml) HCMV [1] [µg/mL] | IC50 (ug/ml) HSV (HSV-1) [µg/mL] | IC50 (ug/ml) VZV (VZV strain Ellen) [µg/mL] | IC50 [1] [µg/mL] | inhibition at 10 µg/mL (VZV strain Ellen) [%]
C[C@@H](NC(=S)Nc1ccc(NC(=O)c2cscn2)cc1)c1cc(C(F)(F)F)cc(C(F)(F)F)c1 [Example 847] | 0.0008 (≈ 0.00154 µM) |  | >7.5 |  | 
CC(=O)Nc1ccc(NC(=S)Nc2ccc(C(C)O)c(Cl)c2)cc1 (stereo not shown) [Example 913, N-(4-{3-[3-Chloro-4-(1-hydroxy-ethyl)-phenyl]-thioureido}-phenyl)-acetamide] |  |  |  | 0.056 (≈ 0.154 µM) | 15
COc1ccc(CCNC(=S)Nc2ccc(NC(=O)c3ccco3)cc2)cc1OC [Example 611] | 0.5 (≈ 1.18 µM) |  | >10 |  | 
CC(NC(=S)Nc1ccc(NC(=O)c2cscn2)cc1)c1ccc(Br)cc1 (stereo not shown) [Example 824] | 0.014 (≈ 0.0303 µM) |  | 0.17 (≈ 0.368 µM) |  | 
CC(NC(=S)Nc1ccc(NC(=O)c2cscn2)cc1)c1ccc(F)c(F)c1 (stereo not shown) [Example 840] | 0.0015 (≈ 0.00358 µM) |  | 0.14 (≈ 0.335 µM) |  | 
CN(C)c1cc(NC(=S)Nc2ccc(NC(=O)c3csnn3)cc2)cc(C(F)(F)F)c1 [Example 571] | 0.013 (≈ 0.0279 µM) |  | >10 |  | 
O=C(Nc1ccc(NC(=S)NC(c2ccccc2)c2cc(C(F)(F)F)cc(C(F)(F)F)c2)cc1)c1csnn1 (stereo not shown) [Example 860] | 0.001 (≈ 0.00172 µM) |  | >7.5 |  | 
O=C(Nc1ccc(NC(=S)Nc2ccc(I)c(C(F)(F)F)c2)cc1)c1csnn1 [Example 615] | 0.005 (≈ 0.0091 µM) |  | >10 |  | 
C[C@H](NC(=S)Nc1ccc(NC(=O)c2csnn2)cc1)c1ccc(Br)cc1 [Example 815] | 0.0095 (≈ 0.0205 µM) |  | 0.27 (≈ 0.584 µM) |  | 
O=C(Nc1ccc(NC(=S)NCc2cc(C(F)(F)F)cc(C(F)(F)F)c2)cc1)c1c[nH]cn1 [Example 862] | 0.1 (≈ 0.205 µM) |  | >7.5 |  | 
O=C(Nc1ccc(NC(=S)NCc2cc(Cl)cc(Cl)c2)cc1)c1csnn1 [Example 584] | 0.0026 (≈ 0.00593 µM) |  | >10 |  | 
CC(NC(=S)Nc1ccc(NC(=O)c2cscn2)cc1)c1ccc(Cl)cc1Cl (stereo not shown) [Example 836] | 0.004 (≈ 0.00886 µM) |  | >7.5 |  | 
CC(NC(=S)Nc1ccc(NC(=O)c2cscn2)cc1)c1ccc(F)cc1C(F)(F)F (stereo not shown) [Example 852] | 0.005 (≈ 0.0107 µM) |  | >7.5 |  | 
CN1CCN(c2ccc(CNC(=S)Nc3ccc(NC(=O)c4csnn4)cc3)cc2C(F)(F)F)CC1 [Example 617] | 0.013 (≈ 0.0243 µM) |  | >10 |  | 
CC(NC(=S)Nc1ccc(NC(=O)c2cscn2)cc1)c1ccc(C(F)(F)F)c(F)c1 (stereo not shown) [Example 849] | 0.002 (≈ 0.00427 µM) |  | 1.82 (≈ 3.88 µM) |  | 
O=C(Nc1ccc(NC(=S)NCc2cc(F)cc(F)c2)cc1)c1csnn1 [Example 581] | 0.01 (≈ 0.0247 µM) |  | >10 |  | 
CC(NC(=S)Nc1ccc(NC(=O)c2csnn2)cc1)c1ccc(F)c(C(F)(F)F)c1 (stereo not shown) [Example 828] | 0.002 (≈ 0.00426 µM) |  | >7.5 |  | 
C[C@@H](NC(=S)Nc1ccc(NC(=O)c2csnn2)cc1)c1ccc(Cl)cc1 [Example 821] | 0.005 (≈ 0.012 µM) |  | >7.5 |  | 

— patent publication US6426355B1, “Heterocyclic carboxamide-containing thiourea inhibitors of herpes viruses containing phenylenediamine group” (American Home Products, priority 1998, dated 2002)
